For experiment [1], the target named is T1, cyclooxygenase (Ovis aries, UniProt P05979).
T1 construct: Ram seminal vesicular glands were trimmed of fat; from tissue; host or cells: ram seminal vesicular glands, microsomal pellet (105K xg)
T1 sequence (P05979 25-600): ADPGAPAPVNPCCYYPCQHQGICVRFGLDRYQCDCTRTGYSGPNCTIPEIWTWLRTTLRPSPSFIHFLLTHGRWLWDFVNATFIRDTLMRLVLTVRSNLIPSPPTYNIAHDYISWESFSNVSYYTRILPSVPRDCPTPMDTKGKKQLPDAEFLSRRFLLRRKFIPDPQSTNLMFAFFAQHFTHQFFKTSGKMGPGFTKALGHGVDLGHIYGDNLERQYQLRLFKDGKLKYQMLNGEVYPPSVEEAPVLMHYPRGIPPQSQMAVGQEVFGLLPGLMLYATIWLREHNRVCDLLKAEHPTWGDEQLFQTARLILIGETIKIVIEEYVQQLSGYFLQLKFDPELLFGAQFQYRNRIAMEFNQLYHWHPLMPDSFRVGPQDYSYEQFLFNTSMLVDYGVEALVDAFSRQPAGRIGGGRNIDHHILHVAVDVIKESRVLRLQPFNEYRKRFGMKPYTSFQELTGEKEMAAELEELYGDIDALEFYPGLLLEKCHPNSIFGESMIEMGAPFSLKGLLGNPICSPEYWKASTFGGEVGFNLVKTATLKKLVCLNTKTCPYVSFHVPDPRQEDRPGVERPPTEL
The experiment is described as follows: RSVM-CO: Ram Seminal Vesicle Microsomal Cyclooxygenase assay. Format: biochemical. Particulars: for inhibition at 0.1 µg/mL: 0.1 μg/ml; for inhibition at 1 µg/mL: 1 μg/ml; for inhibition at 10 µg/mL: 10 μg/ml; for inhibition at 0.01 µg/mL: 0.01 μg/ml. An excerpt: (§1) Two screening methods were employed for the purposes of evaluating the biological activities of the compounds of the present invention. The PMN5LO assay is a direct measure of the capacity to inhibit 5-lipoxygenase. The second protocol, RSVM-CO, is a method of determining inhibition of cyclooxygenase enzyme activity and as such it serves as a negative control.
B. Ram Seminal Vesicle Microsomal Cyclooxygenase (RSVM-CO) Assay Protocol
Ram seminal vesicular glands were trimmed of fat, 50 grams diced into 250 mls ice cold 0.1 M potassium phosphate (pH 7.6) buffer and homogenized using a Brinkman Polytron. The suspension was centrifuged 10 minutes at […] (4° C.) and the supernatant filtered through two cheesecloth layers. The filtrate was centrifuged 160 minutes at 105K xg, the supernatant thereof discarded, and the pellet surface rinsed with a small volume of buffer. The pellets were combined in a small volume, briefly homogenized with the Polytron and frozen in 0.5 ml aliquots at -80° C. The protein concentration was about 50 mg/ml.
The thawed enzyme was diluted 1:63 with 0.125 M Na EDTA (pH 8.0) containing 50 μg/ml BSA. A substrate-cofactor premix was prepared with 66 μM ^14 C-arachidonic acid (about 20K cpm/12.5 μl) in 500 μl 0.125 M Na EDTA (pH 8.0) plus 10 μl 50 mM hydroquinone and 10 μl 200 mM glutathione. To each sample well in the 96 well plate, agents dissolved in 0.5 μ DMSO were added, followed by 12.5 μl of the diluted enzyme. After a 4 minute preincubation at room temperature, 12.5 μl of the substrate-cofactor mix was added to start the reaction. The reaction was terminated after 20 minutes at room temperature by adding 25 μl of methanol containing 200 μg PGE2 and 400 μg AA per ml.
The entire reaction mixture was spotted onto a preadsorbent silica gel GF thin layer plate and, after air drying 45 minutes, developed 12 cm in ethyl acetate:glacial acetic acid (99:1).
The developed lanes were scanned for the distribution of radiolabel using a Bioscan Imaging Detector and the integrated peaks compared to standards and controls yielding % inhibition.

Experiment [2] deals with T2, 5-lipoxygenase (Rattus norvegicus, UniProt P12527).
T2 construct: endogenous in cells; host or cells: casein-elicited peritoneal polymorphonuclear leukocytes of male Sprague-Dawley rats
T2 sequence (P12527 1-673): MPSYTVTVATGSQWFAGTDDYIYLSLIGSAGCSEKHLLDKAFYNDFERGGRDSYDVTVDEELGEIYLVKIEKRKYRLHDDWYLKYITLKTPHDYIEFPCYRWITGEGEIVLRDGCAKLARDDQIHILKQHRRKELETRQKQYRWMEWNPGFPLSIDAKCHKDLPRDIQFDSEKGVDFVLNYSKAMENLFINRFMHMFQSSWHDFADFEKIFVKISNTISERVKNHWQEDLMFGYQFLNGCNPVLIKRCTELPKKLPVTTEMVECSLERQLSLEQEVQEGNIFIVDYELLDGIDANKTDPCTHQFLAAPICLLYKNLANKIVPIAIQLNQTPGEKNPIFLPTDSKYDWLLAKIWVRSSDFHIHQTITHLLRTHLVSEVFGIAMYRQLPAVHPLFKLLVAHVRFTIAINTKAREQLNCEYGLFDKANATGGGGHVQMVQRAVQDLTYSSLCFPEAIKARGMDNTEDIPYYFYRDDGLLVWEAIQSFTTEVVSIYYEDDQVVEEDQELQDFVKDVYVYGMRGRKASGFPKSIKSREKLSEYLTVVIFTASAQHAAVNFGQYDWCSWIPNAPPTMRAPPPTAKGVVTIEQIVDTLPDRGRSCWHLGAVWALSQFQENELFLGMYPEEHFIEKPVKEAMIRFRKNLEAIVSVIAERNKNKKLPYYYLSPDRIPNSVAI
The experiment can be described thus: PMN5LO assay: inhibition of LTB4 production in A23187-stimulated rat peritoneal PMN (RIA). Format: cell-based. Particulars: for IC50: estimated concentration required for 50% inhibition. As for the experimental part:
as §1
Elicition of Rat Peritoneal polymorphonuclear leukoytes (PMN)
Male Sprague-Dawley rats (about 350 grams) were injected intraperitoneally the day before use with 8 ml of 12% sodium caseinate. The next day the animals were killed by CO2 asphyxiation and the peritoneal cavity lavaged twice with 20 ml of Hanks balanced salts containing 15 mM HEPES (pH 7.4), 1.4 mM Ca^++ and 0.7 mM Mg^++ (Hepes-Hanks). The suspensions were filtered through plastic mesh and centrifuged at […] for 5 minutes. The cells were resuspended in 50 ml Hepes-Hanks and recentrifuged. The PMN pellets were combined and suspended at 1.25×10^7 cells/ml.
The cell suspension was then diluted 1:10, preincubated 5 minutes at 37° C. and distributed in 200 μl aliquots in the wells of 96 well microtiter plates. The wells had previously received samples of the compounds of the present invention, controls, etc., in 25 μl of 0.001% fatty acidfree BSA in Hepes-Hanks. The plates were incubated 2 minutes at 37° C. and then the cells were stimulated to produce LTB4 by the addition of 25 μl of 100 μM calcium ionophore, designated A23187. After 4 minutes at 37° C. the plates were frozen in dry ice.
Radioimmunoassay (RIA) of LTB4
The frozen plates were thawed to 4° C. and 25 μl aliquots removed to V well plates. Antibody to LTB4 (50 μl) was added and, after 15 minutes at room temperature, 50 μl of ^3 H-LTB4 was added and the plates were stored overnight at 4° C. to allow equilibration. The next day the "free" 3H-LTB4 was removed by adsorption to dextran coated charcoal [90 μl per well of a 4% charcoal suspension with 0.25% Dextran T-70 in 10 mM potassium phosphate (pH 7.3) containing lmM EDTA and 0.25 mM thimerasol] during a 10 minute ice temperature incubation. The charcoal was removed by a 10 minute centrifugation at 200 sg. Aliquots of the supernatant were counted in a Packard 460, analyzed in a Masscomp computer and the data drawn up as % inhibition of LTB4 production.

Each structure is given as a SMILES string. Several values for one entry are separate records, joined by “and”; a condition that tells them apart may be missing. Equal values may be shown once.

As for `Oc1cc(-c2ccccc2)sc1-c1ccccc1` [Compound 4, 3-Hydroxy-2,5-diphenylthiophene], in experiment [1], the inhibition (usually the relative decrease from the control value, in per cent) at 0.1 µg/mL came out at 24%; the inhibition at 1 µg/mL was 6%; the inhibition at 10 µg/mL amounted to 92%. In experiment [1] (0.4 μg/ml), this molecule had an inhibition at 0.4 µg/mL of 18%. The same molecule came in with an inhibition at 2 µg/mL in experiment [1] (2 μg/ml) of 46%. Moreover, in experiment [2] (0.012 μg/ml), the PMN5LO % inhibition came out at 11% and the inhibition at 0.012 µg/mL was found to be 17%. Also, the PMN5LO % inhibition in experiment [2] (0.11 μg/ml) was 97% and 70%. In experiment [2] (0.33 μg/ml), the PMN5LO % inhibition is 85% and the inhibition at 0.33 µg/mL was found to be 98%. In experiment [2] (1 μg/ml), this molecule gave a PMN5LO % inhibition of 88% and an inhibition at 1 µg/mL of 99%. In addition, the IC50 (in general, the concentration at which inhibition is half-maximal) in experiment [2] was 110 nM.

Consider `CC(=O)Oc1cscc1-c1ccccc1` [Compound 15, 3-Acetoxy-4-phenylthiophene], for which the inhibition at 0.1 µg/mL in experiment [1] worked out at 0%. The inhibition at 1 µg/mL stood at 0% in experiment [1] and 10% in experiment [2] (1 μg/ml). Further, in experiment [2] (0.012 μg/ml), the inhibition at 0.012 µg/mL worked out at 9%. This molecule came in with an inhibition at 0.037 µg/mL in experiment [2] (0.037 μg/ml) of 0%. Moreover, at 0.11 µg/mL the inhibition in experiment [2] (0.11 μg/ml) was 0%. In experiment [2] (0.33 μg/ml), this molecule showed an inhibition at 0.33 µg/mL of 0%.

In experiment [1], `COc1ccc(-c2sc3c(c2OC(C)=O)CCCC3)cc1` had an inhibition at 0.1 µg/mL of 100% and an inhibition at 1 µg/mL of 11%. In addition, in experiment [2] (0.33 μg/ml), the PMN5LO % inhibition is given as 88% and testing at 0.33 µg/mL gave an inhibition of 85%. For the same molecule, in experiment [2] (1 μg/ml), the PMN5LO % inhibition is reported as 97% and the inhibition at 1 µg/mL amounted to 100%. In addition, the IC50 in experiment [2] was 650 nM. Besides, in experiment [2] (unit inferred), the IC50 was 380 nM.

As to `COCC(=O)Oc1cc(-c2ccccc2)sc1-c1ccccc1` [Compound 10], in experiment [1], at 0.1 µg/mL the inhibition was 60%. For the same molecule, the inhibition at 0.012 µg/mL in experiment [2] (0.012 μg/ml) was found to be 0%. Also, the PMN5LO % inhibition in experiment [2] (0.037 μg/ml) was 28% and 51%; in experiment [2] (0.11 μg/ml) it was 73%; in experiment [2] (1 μg/ml), 58%. The inhibition at 0.33 µg/mL in experiment [2] (0.33 μg/ml) was determined as 100%. For the same molecule, the values for the IC50 in experiment [2] and in experiment [2] (unit inferred) were 200 nM and 110 nM, respectively.

In experiment [1], `CC(=O)Oc1cc(-c2cccs2)sc1-c1ccccc1` had an inhibition at 0.01 µg/mL of 0%, an inhibition at 0.1 µg/mL of 0% and an inhibition at 1 µg/mL of 0%. Besides, in experiment [2] (0.11 μg/ml), the PMN5LO % inhibition is 51% and 100%. Moreover, the PMN5LO % inhibition in experiment [2] (0.33 μg/ml) was 52% and 100%. The PMN5LO % inhibition in experiment [2] (1 μg/ml) was 74% and 100%.

For `Oc1c(-c2ccccc2)sc(-c2ccccc2)c1-c1ccccc1` [Compound 2, 3-Hydroxy-2,4,5-triphenylthiophene], the inhibition at 10 µg/mL stood at 23% in experiment [1] and 95% in experiment [2] (10 μg/ml). For the same molecule, the inhibition at 0.012 µg/mL in experiment [2] (0.012 μg/ml) amounted to 22%. Besides, in experiment [2] (0.037 μg/ml), the inhibition at 0.037 µg/mL is 14%. Moreover, in experiment [2] (0.11 μg/ml), the inhibition at 0.11 µg/mL was determined as 0%. This molecule displayed an inhibition at 0.3 µg/mL in experiment [2] (0.3 μg/ml) of 0%. For the same molecule, in experiment [2] (1 μg/ml), at 1 µg/mL the inhibition was 53%. Moreover, the IC50 in experiment [2] was around 3000 nM.

For the molecule `CC(=O)Oc1c(-c2ccccc2)sc(-c2ccccc2)c1-c1ccccc1` [Compound 7], in experiment [1], the inhibition at 0.01 µg/mL was 0%, the inhibition at 0.1 µg/mL came out at 0% and 1 µg/mL produced 12% inhibition. In addition, the inhibition at 5 µg/mL in experiment [1] (5 μg/ml) turned out to be 76%. In experiment [2] (1 μg/ml), the PMN5LO % inhibition was 10% and 0%. The IC50 in experiment [2] was above 3000 nM.

These data come from patent publication US4999436A, “Aryl-substituted thiophene 3-ols, derivatives and analogs useful as lipoxgenase inhibitors” (Merck & Co., Inc., priority 1989, dated 1991).
